7 compounds from PubChem BioAssay AID256 (DTP/NCI, 2004) can be followed below.

The experiment concerns CD2F1 mice, L1210 leukemia ip, survival T/C. Put plainly: NCI In Vivo Anticancer Drug Screen. Data for tumor model L1210 Leukemia (intraperitoneal) in CD2F1 (CDF1) mice. As to conditions: higher = longer survival. The method, boiled down:
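Activity against a transplanted murine tumor was judged by comparing the compound group with a vehicle group. The outcome in the treated animals was divided by that in the controls.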

Where “and” joins values, the source holds several entries; their conditions need not be identical. Equal entries are not always repeated. Toxic doses and inconclusive results are not listed.

On to `O=C(C[n+]1ccc2ccccc2c1)c1ccc2ccccc2c1`, for which the T/C runs as follows: (endpoint: mean survival time, dose: 12.5 mg/kg/injection, schedule: Q04DX003 (ip), vehicle: saline with Tween-80) 92 % of control; (endpoint: mean survival time, dose: 25.0 mg/kg/injection, schedule: Q04DX003 (ip), vehicle: saline with Tween-80) 86 % of control.

In the case of `CC1OC(OC2CC(O)(C(=O)CO)Cc3c(O)c4c(c(O)c32)C(=O)c2ccccc2C4=O)CC(N)C1O` (stereo not given), the T/C reads like this: (endpoint: mean survival time, dose: 0.03 mg/kg/injection, schedule: Q01DX009 (ip), vehicle: water) 114 % of control; (endpoint: mean survival time, dose: 0.13 mg/kg/injection, schedule: Q01DX009 (ip), vehicle: water) 151 % of control; (endpoint: mean survival time, dose: 0.25 mg/kg/injection, schedule: Q01DX009 (ip), vehicle: water) 175 % of control; (endpoint: mean survival time, dose: 1.0 mg/kg/injection, schedule: Q01DX009 (ip), vehicle: water) 102 % of control.

In the case of `CCCCCCCCCCCCCCCC/C(=C\c1ccc2ccccc2c1)[N+](=O)[O-]`, the T/C by setting is: (endpoint: mean survival time, dose: 75.0 mg/kg/injection, schedule: Q01DX001 (ip), vehicle: other) 106 % of control; (endpoint: mean survival time, dose: 150.0 mg/kg/injection, schedule: Q01DX001 (ip), vehicle: other) 96 % of control; (endpoint: mean survival time, dose: 300.0 mg/kg/injection, schedule: Q01DX001 (ip), vehicle: other) 95 % of control.

Regarding `CCCCNC(=O)Nc1ccc(C(=O)OCCCC)cc1`, the T/C runs as follows: (endpoint: mean survival time, dose: 100.0 mg/kg/injection, schedule: Q01DX009 (ip), vehicle: saline with Tween-80) 87 % of control; (endpoint: mean survival time, dose: 100.0 mg/kg/injection, schedule: Q04DX003 (ip), vehicle: saline with Tween-80) 101 % of control; (endpoint: mean survival time, dose: 200.0 mg/kg/injection, schedule: Q01DX009 (ip), vehicle: saline with Tween-80) 92 % of control; (endpoint: mean survival time, dose: 200.0 mg/kg/injection, schedule: Q04DX003 (ip), vehicle: saline with Tween-80) 101 % of control; (endpoint: mean survival time, dose: 400.0 mg/kg/injection, schedule: Q01DX009 (ip), vehicle: saline with Tween-80) 92 % of control; (endpoint: mean survival time, dose: 400.0 mg/kg/injection, schedule: Q04DX003 (ip), vehicle: saline with Tween-80) 100 % of control.

`Cc1ccc(CCF)cc1`: the T/C (endpoint: mean survival time, dose: 100.0 mg/kg/injection, schedule: Q01DX001 (ip), vehicle: saline with Tween-80) was 107 % of control and the T/C (endpoint: mean survival time, dose: 200.0 mg/kg/injection, schedule: Q01DX001 (ip), vehicle: saline with Tween-80) is 109 % of control.

With `O=C(O)/C=C\c1ccc(OC(=O)c2ccccc2)cc1`, the T/C is 96 % of control (endpoint: mean survival time, dose: 50.0 mg/kg/injection, schedule: Q01DX009 (ip), vehicle: Klucel (hydroxypropylcellulose) (HPC)); 93 % of control (endpoint: mean survival time, dose: 100.0 mg/kg/injection, schedule: Q01DX009 (ip), vehicle: Klucel (hydroxypropylcellulose) (HPC)); 93 % of control (endpoint: mean survival time, dose: 200.0 mg/kg/injection, schedule: Q01DX009 (ip), vehicle: Klucel (hydroxypropylcellulose) (HPC)).

Take `O=C(NO)c1ccc(O)c(O)c1`: the T/C is 115 % of control (endpoint: mean survival time, dose: 25.0 mg/kg/injection, schedule: Q01DX009 (ip), vehicle: water); 121 % of control (endpoint: mean survival time, dose: 164.71 mg/kg/injection, schedule: Q01DX009 (ip), vehicle: water); 152 % of control (endpoint: mean survival time, dose: 196.0 mg/kg/injection, schedule: Q01DX009 (ip), vehicle: water); 167 % of control (endpoint: mean survival time, dose: 200.0 mg/kg/injection, schedule: Q01DX009 (ip), vehicle: water); 168 % of control (endpoint: mean survival time, dose: 245.0 mg/kg/injection, schedule: Q01DX009 (ip), vehicle: water); 167 % of control (endpoint: mean survival time, dose: 307.0 mg/kg/injection, schedule: Q01DX009 (ip), vehicle: water). For the same compound, the T/C (endpoint: mean survival time, dose: 307.2 mg/kg/injection, schedule: Q01DX009 (ip), vehicle: water) was 176 % of control; the T/C (endpoint: mean survival time, dose: 336.14 mg/kg/injection, schedule: Q01DX009 (ip), vehicle: water) was 155 % of control; the T/C (endpoint: mean survival time, dose: 383.0 mg/kg/injection, schedule: Q01DX009 (ip), vehicle: water) is 185 % of control; the T/C (endpoint: mean survival time, dose: 384.0 mg/kg/injection, schedule: Q01DX009 (ip), vehicle: water) was 162 % of control; the T/C (endpoint: mean survival time, dose: 400.0 mg/kg/injection, schedule: Q01DX009 (ip), vehicle: water) was 167 % of control; the T/C (endpoint: mean survival time, dose: 480.0 mg/kg/injection, schedule: Q01DX009 (ip), vehicle: water) is 167 % of control and 206 % of control. In addition, the T/C by setting is: (endpoint: mean survival time, dose: 480.2 mg/kg/injection, schedule: Q01DX009 (ip), vehicle: water) 187 % of control; (endpoint: mean survival time, dose: 600.0 mg/kg/injection, schedule: Q01DX009 (ip), vehicle: water) 154 % of control and 164 % of control; (endpoint: median survival time, dose: 18.75 mg/kg/injection, schedule: Q03HX024 (ip), vehicle: water) 113 % of control; (endpoint: median survival time, dose: 22.5 mg/kg/injection, schedule: Q03HX024 (ip), vehicle: water) 109 % of control; (endpoint: median survival time, dose: 37.5 mg/kg/injection, schedule: Q03HX024 (ip), vehicle: water) 124 % of control; (endpoint: median survival time, dose: 45.0 mg/kg/injection, schedule: Q03HX024 (ip), vehicle: water) 119 % of control. For the same compound, the T/C (endpoint: median survival time, dose: 50.0 mg/kg/injection, schedule: Q01DX009 (ip), vehicle: water) is 117 % of control; the T/C (endpoint: median survival time, dose: 100.0 mg/kg/injection, schedule: Q01DX009 (ip), vehicle: water) was 124 % of control; the T/C (endpoint: median survival time, dose: 120.0 mg/kg/injection, schedule: Q01DX009 (ip), vehicle: water) was 122 % of control; the T/C (endpoint: median survival time, dose: 180.0 mg/kg/injection, schedule: Q03HX024 (ip), vehicle: water) was 214 % of control; the T/C (endpoint: median survival time, dose: 225.0 mg/kg/injection, schedule: Q03HX024 (ip), vehicle: water) is 273 % of control; the T/C (endpoint: median survival time, dose: 240.0 mg/kg/injection, schedule: Q01DX009 (ip), vehicle: water) was 154 % of control. In addition, the T/C by setting is: (endpoint: median survival time, dose: 268.0 mg/kg/injection, schedule: Q01DX009 (ip), vehicle: water) 160 % of control; (endpoint: median survival time, dose: 270.0 mg/kg/injection, schedule: Q03HX024 (ip), vehicle: water) 238 % of control; (endpoint: median survival time, dose: 400.0 mg/kg/injection, schedule: Q01DX009 (ip), vehicle: water) 162 % of control and 163 % of control; (endpoint: median survival time, dose: 480.0 mg/kg/injection, schedule: Q01DX009 (ip), vehicle: water) 178 % of control; (endpoint: median survival time, dose: 600.0 mg/kg/injection, schedule: Q01DX009 (ip), vehicle: water) 95 % of control; (endpoint: median survival time, dose: 720.0 mg/kg/injection, schedule: Q01DX009 (ip), vehicle: water) 170 % of control.
